Laboratory results taken from publication PMC11342128, “Gold(I) and gold(III) carbene complexes from the marine betaine norzooanemonin: inhibition of thioredoxin reductase, antiproliferative and antimicrobial activity” (RSC Medicinal Chemistry, 2024).

Legend:
[1] = test system: Acinetobacter baumannii DSM30007; experiment: Antibacterial activity (MIC, curve fitting); type: cell-based; settings: Table S12; ± standard error of the mean
Protocol: (§1) The antibacterial activity of all gold complexes was assessed against six pathogenic bacterial strains, including two Gram-positive species, i.e. Enterococcus faecium and methicillin-resistant Staphylococcus aureus (MRSA), and four Gram-negative species, i.e. Acinetobacter baumannii, Escherichia coli, Klebsiella pneumoniae, and Pseudomonas aeruginosa. Minimum inhibitory concentrations (MICs) were determined using a curve-fitting technique.
(§2) S2.1. Antibacterial Studies
(§3) Bacterial cultures were prepared by overnight aerobic incubation at 37 °C. Gram-negative strains were cultivated in Müller Hinton broth supplemented with 1% glucose at pH 7.2, while Gram-positive strains were grown in Trypticase soy yeast extract medium (TSY) with a composition of 30 g/l trypticase soy broth, 3 g/l yeast extract, and pH 7.2. The cultures were adjusted to an OD600 of 0.001, resulting in a final starting OD600 of 0.0005 for the subsequent tests. For testing, 25 μL of the prepared culture was combined with 25 μL of serially diluted test compounds in 384 well plates, following established protocols for different strains. Screening was performed at compound concentrations of 0.5, 5, and 50 µM, and for selected compounds, growth inhibition curves were recorded using DMSO stock solutions […]
(§4) Positive control compounds, namely linezolid (for MRSA strains), ciprofloxacin (for E. faecium and E. coli), and amikacin (for P. aeruginosa), were included. The maximum DMSO concentration in the assay […]
(§5) After an 18-hour incubation at 37 °C under moist conditions, the optical density at 600 nm was measured using a Fusion Universal Microplate Analyser (Perkin–Elmer, Waltham, USA). The minimum inhibitory concentration (MIC) values, representing the […]
(§6) fitting with Sigma Plot. The bacterial strains used included Gram-negative strains: Escherichia coli (DSM 1116), A. baumannii (DSM30007), K. pneumoniae (DSM111678), and Pseudomonas aeruginosa PA7 (DSM 24068); and Gram-positive strains: E. faecium (DSM20477) and Staphylococcus aureus MRSA

[2] = test system: Enterococcus faecium DSM20477; experiment: Antibacterial activity (MIC, curve fitting); type: cell-based; settings: Table S12; ± standard error of the mean
Protocol: as §1, §2, §3, §4, §5, §6

[3] = test system: Escherichia coli DSM 1116; experiment: Antibacterial activity (MIC, curve fitting); type: cell-based; settings: Table S12; ± standard error of the mean
Protocol: as §1, §2, §3, §4, §5, §6

[4] = test system: Klebsiella pneumoniae DSM111678; experiment: Antibacterial activity (MIC, curve fitting); type: cell-based; settings: Table S12; ± standard error of the mean
Protocol: as §1, §2, §3, §4, §5, §6

[5] = test system: Pseudomonas aeruginosa DSM 24068; experiment: Antibacterial activity (MIC, curve fitting); type: cell-based; settings: Table S12; ± standard error of the mean
Protocol: as §1, §2, §3, §4, §5, §6

[6] = test system: methicillin-resistant Staphylococcus aureus DSM 11822; experiment: Antibacterial activity (MIC, curve fitting); type: cell-based; settings: Table S12; ± standard error of the mean
Protocol: as §1, §2, §3, §4, §5, §6

TrxR from E. coli = TrxR from E. coli (Escherichia coli, UniProt P0A9P4); experiment: Inhibition of isolated bacterial TrxR, DTNB-based assay; type: biochemical; design: purchased Sigma-Aldrich; settings: compounds at 0.5 µM; n = 2; Table S13
Protocol: The inhibition of isolated TrxR from E. coli was determined for the selected monocarbene gold(I/III) complexes 2a–c and 4b–c using a DTNB-based assay (Table 3). […] The inhibition of bacterial TrxR for compound 2a was investigated in our previous report (Table 3).
S2.3. Inhibition of bacterial TrxR from E. coli
The TrxR (E. coli) inhibition assay was performed according to previously published procedures.[8] The assay is partly based on the procedure developed by Lu et al[9] and makes use of the reduction of DTNB (5,5′-dithiobis-(2-nitrobenzoic acid)). Solutions of E. coli TrxR (10.1 U/mL) and E. coli thioredoxin (Trx) (312 μg/mL) (both purchased from Sigma-Aldrich) were prepared in distilled water. Stock solutions of the test compounds (2 mM) were prepared in DMSO and serially diluted with TE buffer (Tris-HCl 50 mM, EDTA 1 mM, pH 7.5). 20 μL of these solutions or TE buffer without the test compounds (positive control) were mixed with the TrxR solution (10 μL), the Trx solution (10 μL) and 100 µl of NADPH (200 μM) in TE buffer in a well on a 96-well plate. As a blank control, 200 μM NADPH in TE buffer (100 μL) mixed with a DMSO / buffer mixture (40 μL) was used (final concentrations of DMSO: 0.5% v/v). The plate was incubated for 75 min at 25°C with moderate shaking. After incubation, 100 μL of a reaction mixture (TE buffer containing 200 μM NADPH and 5 mM DTNB) was added to each well to initiate the reaction. After thorough mixing, the formation of 5-TNB was monitored by a microplate reader at 405 nm in 35 s intervals (10 measurements). The values were corrected by subtraction of the blank solution absorption values. The increase in concentration of 5-TNB followed a linear trend (r2≥ 0.990) and the enzymatic activities were calculated as the gradients (increase in absorbance per second) thereof. […]
for each test compound, where the highest test compound concentration was used and the enzyme solution was replaced by TE buffer. The inhibition is presented as the mean IC50 values and standard deviations obtained in three independent experiments.
Table S13. Activity of TrxR from E. coli in presence of compounds at 0.5 µM (n = 2, n.d.= not

Chain of TrxR from E. coli (P0A9P4 2-321): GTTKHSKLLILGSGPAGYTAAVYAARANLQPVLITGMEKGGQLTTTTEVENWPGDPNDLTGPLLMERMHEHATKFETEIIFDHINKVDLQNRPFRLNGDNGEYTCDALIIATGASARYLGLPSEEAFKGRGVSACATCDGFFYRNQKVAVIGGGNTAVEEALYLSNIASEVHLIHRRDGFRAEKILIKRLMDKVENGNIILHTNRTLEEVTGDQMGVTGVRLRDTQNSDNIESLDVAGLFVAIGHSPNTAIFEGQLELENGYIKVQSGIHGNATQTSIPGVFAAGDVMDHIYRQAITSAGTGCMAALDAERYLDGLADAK

COC(=O)c1cn(C)[c]([Au-]([Cl])([Cl])[c]2n(C)cc(C(=O)OC)[n+]2C)[n+]1C.O=S(=O)([O-])C(F)(F)F [5b]
MIC, A. baumannii [1]: > 100 µM | MIC, E. faecium [2]: > 100 µM | MIC, E. coli [3]: > 100 µM | MIC, K. pneumoniae [4]: > 100 µM | MIC, P. aeruginosa [5]: > 100 µM | MIC, MRSA [6]: > 100 µM | TrxR activity, % of control (TrxR from E. coli): 90.8 % of control

Cn1cc(C(=O)O)[n+](C)[c]1[Au-]([Cl])([Cl])[c]1n(C)cc(C(=O)O)[n+]1C.[Cl-] [5a]
MIC, A. baumannii [1]: > 100 µM | MIC, E. faecium [2]: > 100 µM | MIC, E. coli [3]: > 100 µM | MIC, K. pneumoniae [4]: > 100 µM | MIC, P. aeruginosa [5]: > 100 µM | MIC, MRSA [6]: > 100 µM | TrxR activity, % of control (TrxR from E. coli): 91.6 % of control

CCOC(=O)c1cn(C)[c]([Au-]([Cl])([Cl])[c]2n(C)cc(C(=O)OCC)[n+]2C)[n+]1C.F[B-](F)(F)F [5c]
MIC, A. baumannii [1]: > 100 µM | MIC, E. faecium [2]: > 100 µM | MIC, E. coli [3]: > 100 µM | MIC, K. pneumoniae [4]: > 100 µM | MIC, P. aeruginosa [5]: > 100 µM | MIC, MRSA [6]: 23.15 ± 0 µM | TrxR activity, % of control (TrxR from E. coli): 93.5 % of control
